Measurements as given in patent US20140377289A1, “Metallodrugs Having Improved Pharmacological Properties, and Methods of Manufacture and Use Thereof” (MetalloPharm, LLC, priority 2011, published 2014).
Read-outs that look alike come from different tables or passages of the source. Where a SMILES comes first, the peptide text is derived from it. [ ]: non-standard residue; d: D form. Cha = N[C@@H](CC1CCCCC1)C(=O)O

How the values were obtained:
[1] = biological target: HCV protease (Hepatitis C virus genotype 1a, UniProt P27958); assay: biochemical; assay type: binding
Excerpt: This stems from the relationship between affinity and the on/off rate constants for binding (KA=kon/koff), where higher affinity binding is promoted by larger kon and/or smaller koff values. By contrast, efficient catalytic turnover requires koff values that are preferably no smaller than the rate constant for the inactivation chemistry (kcat), to ensure the availability of metallodrug catalyst for new target molecules, and will be best promoted by relatively high values for both kon and koff, which will result in weaker KA values.
Apparent binding affinities and rates of inactivation for HCV protease by several metallopeptide derivatives incorporating a Cu-GGH metal binding domain and C-terminal HCV protease targeting peptides were prepared and their affinity and reactivity were evaluated under in the presence of various redox reagents. Affinities lay within the range of 10^4M^−1 and 5×10^8 M^−1.

[2] = system: pUC19 plasmid DNA; assay: DNA nicking and linearization nuclease assay; assay type: biochemical; settings: 10 μM base pairs pUC19, ascorbate/peroxide; for klin for DNA linearization, without attached Rev (M-chelate) / knick for DNA nicking, without attached Rev (M-chelate): — = Below detection limit; for klin for DNA linearization, with attached Rev (M-chelate-REV) / knick for DNA nicking, with attached Rev (M-chelate-REV): 100 nM M-chelate-Rev
[3] = system: HCV RNA replicon in ET (luc-ubi-neo/ET) Huh7 cells; settings: read-out: antiviral IC50; 72 h, replicon-derived Luc activity
[4] = in vitro; settings: human
[5] = biological target: stem-loop IIb of HCV IRES RNA; assay type: binding, hepatitis C virus (HCV)
Experimental: RNA was purchased from Dharmacon, part of Thermo Fisher Scientific (Lafayette, Colo.). Peptides were purchased from Genemed Synthesis Inc (South San Francisco, Calif.) with C-terminal amidation. The stem-loop (SL) structure (from Lytle et al., RNA 13: 539-48, 2002) is depicted in FIG. 6. The sequence for the IRES SL IIb RNA used was 5′-Fluorescein-[…]-3′, and for the IRES SL IV RNA was 5′-Fluorescein-[…]-3′. All RNA was annealed by heating to 95° C. and then cooled slowly to room temperature before use.
RNA binding experiments were performed in the presence of 84 nM GGHYrFK-amide in 20 mM HEPES (pH 7.4), 100 mM NaCl. For GGHYrFK-amide, serial additions of unlabeled IRES RNA were added and tyrosine emission was monitored (λex=280 nm, λem=313 nm). Binding data for GGHYr[…]-amide and GGHYr[…]-amide were obtained by adding serial additions of peptide to 5′-fluorescein labeled IRES SLIIb and monitoring at 518 nm (Ex=485 nm). Data was then fit to a one-site binding model.

[6] = system: stem loop IIb HCV IRES RNA; assay type: biochemical, hepatitis C virus (HCV)
Experimental: HCV IRES RNA cleavage was monitored in vitro by fluorescence using 5′ fluorescein end-labeled RNA with excitation and emission wavelengths of 485 nm and 518 nm, respectively. Reactions were carried out in reaction volumes of 100 μl in the presence of 1 mM ascorbate and 1 mM H2O2 in 20 mM HEPES buffer (pH=7.4), 100 mM NaCl with 100 nM of the catalyst and analyzed according to the change in fluorescence observed as the reaction occurred. Both a time-dependence and a concentration-dependence of RNA substrate were observed. The initial velocities were fit to a line using Origin 7.0 software and kobs obtained. These values were then used to obtain the Michaelis-Menten parameters.
The reactivity of select catalytic metallodrugs was investigated by Michaelis-Menten profiles. Reaction chemistry was followed by monitoring the fluorescence change of 5′-fluorescein-labeled RNA as a function of time. Initial velocities were measured as a function of substrate (RNA) concentration to generate a standard Michaelis-Menten plot (FIG. 2).

[7] = system: ET (luc-ubi-neo/ET) Huh7 human hepatoma cell line; settings: read-out: cytotoxicity TC50; 72 h, CytoTox-1 colorimetric assay
[8] = system: HIV RRE RNA (AP-RRE RNA); assay type: binding; settings: for Kd: 37° C., pH 7.4
Experimental: Determination of Dissociation Constants. […] A 660 μL volume of 100 nM AP-RRE RNA was first heated to 90° C. for 5 min and then allowed to cool to, but not below, the titration temperature (37° C.). A 650 μL volume of this sample was added to the pre-thermostatted cuvette. After 10 min of temperature equilibration a solution of 5 μM M-chelate-Rev complex was titrated into the solution. After each addition, 100 μL of the solution was mixed by gentle pipeting to ensure complete mixing. The fluorescence change associated with the change of environment of the aminopurine label was monitored following peptide binding. Titration response curves were dilution and background corrected and normalized to initial intensity values. Curves were fit to a biphasic equation (4) for two independent binding sites where Fobs is the total observed fluorescence intensity, P0 is the total concentration of added M-chelate-Rev, F0, F1, and F2 are fitting parameters corresponding to the intensities of the unbound, singly-bound, and doubly-bound AP-RNA, respectively, R0 is the initial concentration of AP-RNA, and KD1 and KD2 are dissociation constants for binding at the high- and low-affinity sites, respectively. All binding experiments were performed in a binding buffer composed of 20 mM HEPES, 100 mM NaCl, pH 7.4.

[9] = system: AP-RNA (aminopurine-labeled RRE RNA); assay: Reaction kinetics monitored by real-time fluorimetry, AP-RNA; assay type: biochemical, HIV; settings: 100 nM complex, 100 nM AP-RNA, 1 mM H2O2, 1 mM ascorbate, 37° C.; initial rate
Experimental: Reaction Kinetics Monitored by Real-Time Fluorimetry. Reactions of 100 nM metal-chelate-Rev (1:1.2 M:chelate ratio), 1 mM H2O2, 1 mM ascorbate, and 100 nM AP-RNA were conducted at 37° C. in a fluorescence cuvette in a Varian Cary Eclipse fluorescence spectrophotometer. Reactions were monitored using excitation at 310 nm (SW=10 nm) and emission at 371 nm (SW=10 nm). Prior to reaction the AP-RNA was pre-heated to 90° C. for 5 min and then added to the pre-warmed 37° C. cuvette. The metal-chelate-Rev complexes were added after 5 min, and reactions were initiated by the addition of H2O2 and ascorbate after an additional 10 min. Each resulting fluorescence trace was fit to a first-order reaction equation using the software Origin, and observed rate constants and initial rates were determined; the magnitude of fluorescence change that corresponded to complete reaction was established by averaging the magnitudes of fluorescence change from many trials known to react to completion. All concentrations and buffer were identical to those used in the PAGE analysis assay with Fl-RNA. Control reactions with respective metal-chelates lacking the Rev domain were conducted in the same manner.

[10] = system: 5′ fluorescein end-labeled RRE stem IIB RNA (Fl-RNA); assay: PAGE analysis of RRE RNA cleavage kinetics; assay type: biochemical, HIV; settings: 100 nM complex, 100 nM Fl-RNA, 1 mM H2O2, 1 mM ascorbate, 37° C.; initial rate
Experimental: PAGE Analysis of RRE RNA Cleavage Kinetics. Reactions of 100 nM metal-chelate-Rev (1:1.2 M:chelate ratio), 1 mM H2O2, 1 mM ascorbate, and 100 nM 5′ fluorescein end-labeled RRE stem IIB RNA (Fl-RNA) were conducted at 37° C. in separate tubes, each containing 20 μL total reaction volume—one tube corresponding to one gel lane. A buffer consisting of 20 mM HEPES, 100 mM NaCl, pH 7.4 was used in all experiments. Fl-RNA was heated to 90° C. and allowed to cool to, but not below 37° C. prior to reaction, and the Fl-RNA was immediately added to each pre-incubated tube. Reactants were added to pre-incubated tubes at time-points corresponding to the beginning of each reaction, which were performed in a dark incubator. Reaction start times were staggered and all reactions were quenched at the same time by addition of a quenching/gel-loading buffer solution (80 μL/tube) consisting of standard 1× tris-EDTA-acetic acid buffer, 8M urea, 20 mM HEPES, 100 mM NaCl. The tubes were then heated to 90° C. for 5 min and a 5 μL aliquot from each tube was then loaded into its corresponding lane of a 10% polyacrylamide 8 M urea gel, resulting in […] Fl-RNA per lane. Gel electrophoresis was performed at 250 V for 1.5 h. Gels were analyzed on a GE Typhoon variable mode imager using 488 nm excitation and a 526 nm single pass emission filter. Bands were quantified with the program ImageQuant. Loss of initial Fl-RNA reactant bands were fit to a first-order reaction equation using the software Origin, and observed rate constants and initial rates were determined. Control reactions with respective metal-chelates lacking the Rev domain were conducted in the same manner.

[11] = Michaelis-Menten, stem-loop IIb RNA as substrate
[12] = high-affinity RRE RNA site, read-out: KD1
[13] = low-affinity RRE RNA site, read-out: KD2

Sequence of HCV protease (P27958 1027-1208, other chains not shown): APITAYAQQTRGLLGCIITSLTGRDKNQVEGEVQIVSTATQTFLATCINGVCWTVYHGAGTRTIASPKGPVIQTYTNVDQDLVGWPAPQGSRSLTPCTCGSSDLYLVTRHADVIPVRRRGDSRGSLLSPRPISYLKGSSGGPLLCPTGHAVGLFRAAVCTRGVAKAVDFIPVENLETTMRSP

Row | Molecule | IC50 [3] | CC50 [7] | klin for DNA linearization, with attached Rev (M-chelate-REV) [2] | knick for DNA nicking, with attached Rev (M-chelate-REV) [2] | KA1 ([8]; high-affinity RRE RNA site) | Kd [8, 12] | KA2 ([8]; low-affinity RRE RNA site) | Kd [8, 13] | AP-RNA Modification Rate [9] | Fl-RNA Cleavage Rate [10] | other results
1 | CC[C@H](C)[C@H](NC(=O)[C@H](CC(C)C)NC(=O)[C@@H](CCC(=O)O)NC(=O)[C@H](CC(=O)O)NC(=O)CNC(=O)[C@H](Cc1c[nH]cn1)NC(=O)CNC(=O)CN)C(=O)N[C@@H](CC1CCCCC1)C(=O)N[C@@H](CS)C(=O)O [Cu-GGHGDeLI(Cha)C—CO2^−] (H-GGHGD[dE]LI[Cha]C-OH) | – | – | – | – | – | – | – | – | – | – | Kd [1]: 500 nM; Ki [1]: ~500 nM; KA ([1]; apparent binding affinity): ~2e+06 M⁻¹
2 | O=C([O-])CN(CC(=O)[O-])CC(=O)[O-].[Fe+3] [Fe-NTA] | – | – | – | – | – | – | – | – | – | – | klin for DNA linearization, without attached Rev (M-chelate) [2]: 0.0008 ± 0.0002 min⁻¹; knick for DNA nicking, without attached Rev (M-chelate) [2]: 0.05 ± 0.01 min⁻¹
3 | O=C(O)CN(CCN(CC(=O)O)CC(=O)O)CC(=O)O.[Ni] [Ni-EDTA] | – | – | – | – | – | – | – | – | – | – | klin for DNA linearization, without attached Rev (M-chelate) [2]: 0.00019 ± 0.00002 min⁻¹; knick for DNA nicking, without attached Rev (M-chelate) [2]: 0.037 ± 0.002 min⁻¹
4 | N=C(N)NCCC[C@@H](NC(=O)[C@@H](N)Cc1ccc(O)cc1)C(=O)N[C@@H](Cc1ccccc1)C(=O)N[C@@H](CCCCN)C(N)=O [YrFK, reference compound] | > 100000 nM | – | – | – | – | – | – | – | – | – | CC50 at 72 h [4]: > 100000 nM
5 | Cu complex of ATCUN peptide GGHYrFK, C-terminal amidated; targets stem-loop IIb of HCV IRES RNA [Cu-GGHYrFK-amide] | 580 nM | > 100000 nM | – | – | – | – | – | – | – | – | Kd ([5]; change in tyrosine emission at 313 nm): 44 ± 2 nM; KA ([5]; stem-loop IIb): 2.27e+07 M⁻¹; Km [6, 11]: 0.85 µM; kcat [6, 11]: 0.00883 s⁻¹; Vmax ([6]; cleavage of stem-loop IIb, 100 nM catalyst, 1 mM ascorbate, 1 mM H2O2): 1.71 RFU/min; turnover number ([6]; stem-loop IIb RNA as substrate): 32
6 | Cu complex of DOTA coupled to K-Rev, Ac-KTRQARRNRRRRWRERQR-NH2 [Cu-DOTA-Rev] | – | – | 0.0025 ± 0.0008 min⁻¹ | 0.043 ± 0.007 min⁻¹ | 25 10^8 M^−1 | 0.4 ± 0.1 nM | 0.02 10^8 M^−1 | 488 ± 9 nM | 2.8 ± 0.1 nM/min | 0.8 ± 0.1 nM/min | –
7 | Cu complex of GGH-Rev, GGHTRQARRNRRRRWRERQR-NH2 [Cu-GGH-Rev] | – | – | 0.0013 ± 0.0001 min⁻¹ | 0.069 ± 0.006 min⁻¹ | 25 10^8 M^−1 | 4.6 ± 0.5 nM | 0.028 10^8 M^−1 | 363 ± 9 nM | 0.4 ± 0.3 nM/min | 0.045 ± 0.005 nM/min | –
8 | Cu complex of KGHK-Rev, KGHKTRQARRNRRRRWRERQR-NH2 [Cu-KGHK-Rev] | – | – | 0.0062 ± 0.0006 min⁻¹ | 0.17 ± 0.04 min⁻¹ | 7.7 10^8 M^−1 | 1.3 ± 0.5 nM | 0.066 10^8 M^−1 | 148 ± 5 nM | 0.511 ± 0.003 nM/min | 0.060 ± 0.005 nM/min | –
9 | Cu-GGHAALEAKICHQIEYYFGDF | 3460 nM | 41100 nM | – | – | – | – | – | – | – | – | –
10 | Cu-GGHGAALEAKICHQIEYYFGDF | 6250 nM | 52000 nM | – | – | – | – | – | – | – | – | –
